Data reported in patent US10377741B2, “Substituted heteroaryl aldehyde compounds and methods for their use in increasing tissue oxygenation” (Global Blood Therapeutics, Inc., priority 2011, dated 2019).

These molecules were tested against T1, purified Hemoglobin S (HbS) (Homo sapiens, UniProt P68871+P69905, E7V) (assay: Modulation of hemoglobin oxygen affinity: oxygen equilibrium curves (HEMOX) in purified HbS). Details: compound at 30 μM; 25 μM purified HbS, 45 min at 37° C.
T1 construct: HbS was purified by a modified procedure; from tissue; host or cells: blood of homozygous sickle cell patients (CHORI); for the polymerization assay purified by the CRO VIRUSYS
Assay type: biochemical, human (homozygous sickle cell patients)
Protocol: Oxygen equilibrium curves (OEC) in purified Hemoglobin S (HbS) were measured by the change in p50, the partial pressure of oxygen at which the heme binding sites in the HbS sample are 50% saturated with oxygen. HbS was purified by a modified procedure (Antonini and Brunori, 1971; Heomoglobin and Myoglobin in their Reactions with Ligands; North Holland Publishing Company; Amsterdam, London) from blood obtained from homozygous sickle cell patients though the Hemoglobinopathy Center at Children's Hospital Oakland Research Institute (CHORI) with Institutional Review Board approval. Oxygen equilibrium curves were carried out with a HEMOX analyzer, (TCS Scientific, New Hope, Pa.). Five hundred μL of 250 μM purified HbS were diluted into 4.5 mL of HEMOX buffer (30 mM TES, 130 mM NaCl, 5 mM KCl, pH=7.4) resulting in a final hemoglobin concentration of 25 μM. The compounds were added at the final desired concentrations. The mixture was incubated for 45 min at 37° C. and then transferred to the Hemox sample chamber. The samples were saturated with oxygen by flushing with compressed air for 10 minutes. The samples were then flushed with pure nitrogen and the absorbance of deoxy-Hb was recorded as a function of the solution pO2. The oxygen equilibrium data was then fit to the Hill Model to obtain values for p50. The deoxygenation curves for both HbS alone (control) and HbS in the presence of compound were collected with the TCS software. The p50 for purified Hbs was typically 13.8±1.6. Delta p50 values were obtained from the p50 value for control minus the p50 value for HbS treated with compound divided by the p50 value for the control.
The compounds of Table 1 that were where tested in the assay above were all found to have positive delta p50 values. Delta p50% is calculated from [[p50(HbS) −p50(HbS treated with compound)]/p50(HbS)]×100. Table 2 below lists the delta p50% values where + indicates a delta p50% of between 0 and 29, ++ indicates a delta p50% of between 30 and 50, and +++ indicates a delta p50% of 50 or greater. Unless noted otherwise, the compounds in Table 2 were tested at 30 μM.
With `O=Cc1cnccc1OCc1cccnc1` [Compound 1, 4-(pyridin-3-ylmethoxy)nicotinaldehyde] the “delta p50%” value was “+ (a delta p50% of between 0 and 29)”. `O=Cc1cccnc1OCc1cccn2ccnc12` [Compound 3, 2-(imidazo[1,2-a]pyridin-8-ylmethoxy)nicotinaldehyde] was tested, and the “delta p50%” value was “+ (a delta p50% of between 0 and 29)”. In the case of `O=Cc1ncccc1OCc1cccn2ccnc12` [Compound 4, 3-(imidazo[1,2-a]pyridin-8-ylmethoxy)picolinaldehyde], the “delta p50%” value was “+ (a delta p50% of between 0 and 29)”. `O=Cc1ccncc1OCc1cccn2ccnc12` [Compound 6, 3-(imidazo[1,2-a]pyridin-8-ylmethoxy)isonicotinaldehyde] was tested, and the “delta p50%” value was “+ (a delta p50% of between 0 and 29)”. `O=Cc1ccncc1OCc1cccn2cncc12` [Compound 7, 3-(imidazo[1,5-a]pyridin-8-ylmethoxy)isonicotinaldehyde] was tested, and the “delta p50%” value was “+ (a delta p50% of between 0 and 29)”. With `COc1cc(C=O)c(OCc2cccnc2C)cn1` [Compound 38, 2-methoxy-5-((2-methylpyridin-3-yl)methoxy)isonicotinaldehyde] the “delta p50%” value was “+ (a delta p50% of between 0 and 29)”. For `COc1cc(C=O)c(OCc2cnccc2C)cn1` [Compound 39, 2-methoxy-5-((4-methylpyridin-3-yl)methoxy)isonicotinaldehyde], the “delta p50%” value was “+ (a delta p50% of between 0 and 29)”. In the case of `COc1cc(C=O)c(OCc2ccc(C)nc2)cn1` [Compound 41, 2-methoxy-5-((6-methylpyridin-3-yl)methoxy)isonicotinaldehyde], the “delta p50%” value was “+ (a delta p50% of between 0 and 29)”. With `COc1cc(C=O)c(OCc2cccnc2)cn1` [Compound 42, 2-methoxy-5-(pyridin-3-ylmethoxy)isonicotinaldehyde] the “delta p50%” value was “+ (a delta p50% of between 0 and 29)”. For `COc1cc(C=O)c(OCc2ccncc2C)cn1` [Compound 47, 2-methoxy-5-((3-methylpyridin-4-yl)methoxy)isonicotinaldehyde], the “delta p50%” value was “+ (a delta p50% of between 0 and 29)”. In the case of `Cc1ccc(OCc2cccn3ccnc23)c(C=O)n1` [Compound 49, 3-(imidazo[1,2-a]pyridin-8-ylmethoxy)-6-methylpicolinaldehyde], the “delta p50%” value was “++ (a delta p50% of between 30 and 50)”. In the case of `COc1cc(C(O)OC)c(OCc2cccc3nccn23)cn1` (stereo not shown) [Compound 50, (5-(imidazo[1,2-a]pyridin-5-ylmethoxy)-2-methoxypyridin-4-yl)(methoxy)methanol], the “delta p50%” value was “+ (a delta p50% of between 0 and 29)”. In the case of `O=Cc1ccncc1NC(=O)c1cccn2ccnc12` [Compound 51, N-(4-formylpyridin-3-yl)imidazo[1,2-a]pyridine-8-carboxamide], the “delta p50%” value was “+ (a delta p50% of between 0 and 29)”. `COc1cc(C=O)c(OCc2nc3ccccn3c2-c2ccn[nH]2)cn1` [Compound 59, 5-((3-(1H-pyrazol-5-yl)imidazo[1,2-a]pyridin-2-yl)methoxy)-2-methoxyisonicotinaldehyde] was tested, and the “delta p50%” value was “+ (a delta p50% of between 0 and 29)”. `COc1cc(C=O)c(OCc2cn3cccc(-c4ccnn4C)c3n2)cn1` [Compound 61, 2-methoxy-5-((8-(1-methyl-1H-pyrazol-5-yl)imidazo[1,2-a]pyridin-2-yl)methoxy)isonicotinaldehyde] was tested, and the “delta p50%” value was “+ (a delta p50% of between 0 and 29)”. For `COc1cc(C=O)c(OCc2ccc(C#N)nc2)cn1` [Compound 62, 5-((4-formyl-6-methoxypyridin-3-yloxy)methyl)picolinonitrile], the “delta p50%” value was “+ (a delta p50% of between 0 and 29)”. `COc1cc(C=O)c(OCc2cccnc2C#N)cn1` [Compound 64, 3-((4-formyl-6-methoxypyridin-3-yloxy)methyl)picolinonitrile] was tested, and the “delta p50%” value was “+ (a delta p50% of between 0 and 29)”. In the case of `COc1cc(C2OCCO2)c(OCc2cn3cccc(C(N)=O)c3n2)cn1` [Compound 68, 2-((4-(1,3-dioxolan-2-yl)-6-methoxypyridin-3-yloxy)methyl)imidazo[1,2-a]pyridine-8-carboxamide], the “delta p50%” value was “+ (a delta p50% of between 0 and 29)”. `CNC(=O)c1cccn2cc(COc3cnc(OC)cc3C3OCCO3)nc12` [Compound 69, 2-((4-(1,3-dioxolan-2-yl)-6-methoxypyridin-3-yloxy)methyl)-N-methylimidazo[1,2-a]pyridine-8-carboxamide] was tested, and the “delta p50%” value was “+ (a delta p50% of between 0 and 29)”. In the case of `COc1cc(C=O)c(OCc2cncc(-c3ccn[nH]3)c2)cn1` [Compound 70, 5-((5-(1H-pyrazol-5-yl)pyridin-3-yl)methoxy)-2-methoxyisonicotinaldehyde], the “delta p50%” value was “+ (a delta p50% of between 0 and 29)”. In the case of `COc1cc(C=O)c(OCc2cnccc2-c2ccn[nH]2)cn1` [Compound 71, 5-((4-(1H-pyrazol-5-yl)pyridin-3-yl)methoxy)-2-methoxyisonicotinaldehyde], the “delta p50%” value was “+ (a delta p50% of between 0 and 29)”. In the case of `CNC(=O)c1cccn2cc(COc3cnc(OC)cc3C(O)O)nc12` [Compound 72, 2-((4-(dihydroxymethyl)-6-methoxypyridin-3-yloxy)methyl)-N-methylimidazo[1,2-a]pyridine-8-carboxamide], the “delta p50%” value was “+ (a delta p50% of between 0 and 29)”. For `COc1cc(C(O)O)c(OCc2cn3cccc(C(N)=O)c3n2)cn1` [Compound 73, 2-((4-(dihydroxymethyl)-6-methoxypyridin-3-yloxy)methyl)imidazo[1,2-a]pyridine-8-carboxamide], the “delta p50%” value was “+ (a delta p50% of between 0 and 29)”.

Same assay, conditions: compound at 100 μM; 25 μM purified HbS, 45 min at 37° C.
For `O=Cc1cccnc1CCc1cccn2ccnc12` [Compound 12, 2-(2-(imidazo[1,2-a]pyridin-8-yl)ethyl)nicotinaldehyde], the “delta p50%” value was “+ (a delta p50% of between 0 and 29)”. In the case of `COc1cc(C=O)c(OCc2ccc(C(F)(F)F)nc2)cn1` [Compound 40, 2-methoxy-5-((6-(trifluoromethyl)pyridin-3-yl)methoxy)isonicotinaldehyde], the “delta p50%” value was “+ (a delta p50% of between 0 and 29)”. For `COc1cc(C=O)c(OCc2ccncc2Br)cn1` [Compound 48, 5-((3-bromopyridin-4-yl)methoxy)-2-methoxyisonicotinaldehyde], the “delta p50%” value was “++ (a delta p50% of between 30 and 50)”. In the case of `COc1cc(C=O)c(OCc2cn3cc(C(F)(F)F)ccc3n2)cn1` [Compound 52, 2-methoxy-5-((6-(trifluoromethyl)imidazo[1,2-a]pyridin-2-yl)methoxy)isonicotinaldehyde], the “delta p50%” value was “+ (a delta p50% of between 0 and 29)”. For `COc1cc(C=O)c(OCc2ccn(C)c(=O)c2)cn1` [Compound 54, 2-methoxy-5-((1-methyl-2-oxo-1,2-dihydropyridin-4-yl)methoxy)isonicotinaldehyde], the “delta p50%” value was “++ (a delta p50% of between 30 and 50)”. In the case of `COc1cc(C=O)c(OCc2nc3ccccn3c2Br)cn1` [Compound 55, 5-((3-bromoimidazo[1,2-a]pyridin-2-yl)methoxy)-2-methoxyisonicotinaldehyde], the “delta p50%” value was “+ (a delta p50% of between 0 and 29)”. For `COc1cc(C=O)c(OCc2cn3cc(Br)ccc3n2)cn1` [Compound 56, 5-((6-bromoimidazo[1,2-a]pyridin-2-yl)methoxy)-2-methoxyisonicotinaldehyde], the “delta p50%” value was “+ (a delta p50% of between 0 and 29)”. For `COc1cc(C=O)c(OCc2cn3cccc(Br)c3n2)cn1` [Compound 57, 5-((8-bromoimidazo[1,2-a]pyridin-2-yl)methoxy)-2-methoxyisonicotinaldehyde], the “delta p50%” value was “++ (a delta p50% of between 30 and 50)”.
